Values belong to the compound of their own block, whether it stands above or below them.
Target: T1, Bsu DNA polymerase large fragment / primed template nucleic acid (Bacillus subtilis, UniProt O34996)
T1 construct: 350 U/ml Bsu DNA polymerase large fragment
T1 sequence (O34996 297-880 limits assumed): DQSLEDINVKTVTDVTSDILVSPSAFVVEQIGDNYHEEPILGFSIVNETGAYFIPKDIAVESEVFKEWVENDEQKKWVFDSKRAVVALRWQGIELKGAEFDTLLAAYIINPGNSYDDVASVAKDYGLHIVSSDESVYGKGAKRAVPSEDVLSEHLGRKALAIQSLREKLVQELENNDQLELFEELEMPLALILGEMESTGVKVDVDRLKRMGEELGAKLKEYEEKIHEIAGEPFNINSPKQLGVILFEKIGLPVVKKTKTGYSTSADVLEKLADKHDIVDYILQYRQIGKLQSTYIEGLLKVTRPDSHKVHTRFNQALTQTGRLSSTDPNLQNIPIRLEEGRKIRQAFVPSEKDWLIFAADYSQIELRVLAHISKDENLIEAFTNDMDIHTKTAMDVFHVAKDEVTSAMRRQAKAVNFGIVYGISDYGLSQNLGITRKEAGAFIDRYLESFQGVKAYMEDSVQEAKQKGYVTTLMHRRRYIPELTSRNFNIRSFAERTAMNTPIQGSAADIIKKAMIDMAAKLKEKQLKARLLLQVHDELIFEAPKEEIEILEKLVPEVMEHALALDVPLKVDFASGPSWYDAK
Assay: Biolayer interferometry of polymerase binding to immobilized primed template with cognate or non-cognate nucleotide, salt titration (Example 19)
Conditions: for Ternary Complex Signal (Δλ, nm): dCTP (cognate); for Binary Complex Signal (Δλ, nm): dGTP (non-cognate)
Excerpt: A FORTEBIO® (Menlo Park, Calif.) OCTET® instrument employing biolayer interferometry to measure binding reactions at the surface of a fiber optic tip was used in a multiwell plate format to investigate differential stability of binary and ternary complexes. Template strands biotinylated at their 5′-ends were used to immobilize the primed template nucleic acid onto fiber optic tips functionalized with streptavidin (SA) according to standard procedures. […] Tips were first equilibrated in a Tris-buffered solution containing 30 mM Tris-HCl (pH 8.0), and 0.1 mM EDTA before commencing the cycling protocol. Independent binding reactions for the two test nucleotides (i.e., cognate and non-cognate nucleotides) were carried out in the presence of concentrations of NaCl, KCl, or potassium glutamate that varied from 50 mM to 500 mM. […] In all instances, the reaction mixture used during the examination step contained Tris-HCl (pH 8.0), 0.01% Tween-20, 100 μg/ml BSA, 2 mM NiSO4, 350 U/ml Bsu DNA polymerase large fragment; and one of the nucleotides at a concentration of 100 μM (dCTP was used as a cognate nucleotide, and dGTP was used as a non-cognate nucleotide). Following each examination step, tips were exposed to a buffer containing 30 mM Tris-HCl (pH 8.0), 500 mM KCl, 2 mM EDTA and 0.05% Tween-20 for 20 seconds to strip enzyme complexes from the primed template nucleic acid. The stripping step was followed by a 15 second exposure to examination buffer without enzyme, dNTP or divalent cations to regenerate tips for the next cycle of examination. When using a single contacting step to effect binding of polymerase and nucleotide to the primed template nucleic acid, the binding step was 45 seconds long, with binding interactions being monitored continuously. This was accomplished by contacting the primed template nucleic acid with a single solution that included the polymerase and test nucleotide. Results from interferometry monitoring were analyzed to identify formation of ternary complexes (i.e., identifying cognate nucleotide) or binary complexes (i.e., identifying non-cognate nucleotide).

Fold Enhancement (Ternary/Binary) (Potassium glutamate 50 mM): 1.05 | Ternary Complex Signal (Δλ, nm) (Potassium glutamate 50 mM): 1.67 nm | Binary Complex Signal (Δλ, nm) (Potassium glutamate 50 mM): 1.59 nm | Fold Enhancement (Ternary/Binary) (Potassium glutamate 75 mM): 1.01 | Ternary Complex Signal (Δλ, nm) (Potassium glutamate 75 mM): 1.69 nm | Binary Complex Signal (Δλ, nm) (Potassium glutamate 75 mM): 1.68 nm | Fold Enhancement (Ternary/Binary) (Potassium glutamate 100 mM): 1.02 | Ternary Complex Signal (Δλ, nm) (Potassium glutamate 100 mM): 1.67 nm | Binary Complex Signal (Δλ, nm) (Potassium glutamate 100 mM): 1.64 nm | Fold Enhancement (Ternary/Binary) (Potassium glutamate 125 mM): 1.05 | Ternary Complex Signal (Δλ, nm) (Potassium glutamate 125 mM): 1.65 nm | Binary Complex Signal (Δλ, nm) (Potassium glutamate 125 mM): 1.57 nm | Fold Enhancement (Ternary/Binary) (Potassium glutamate 150 mM): 1.07 | Ternary Complex Signal (Δλ, nm) (Potassium glutamate 150 mM): 1.62 nm | Binary Complex Signal (Δλ, nm) (Potassium glutamate 150 mM): 1.51 nm | Fold Enhancement (Ternary/Binary) (Potassium glutamate 175 mM): 1.08 | Ternary Complex Signal (Δλ, nm) (Potassium glutamate 175 mM): 1.56 nm | Binary Complex Signal (Δλ, nm) (Potassium glutamate 175 mM): 1.44 nm | Fold Enhancement (Ternary/Binary) (Potassium glutamate 200 mM): 1.07 | Ternary Complex Signal (Δλ, nm) (Potassium glutamate 200 mM): 1.51 nm | Binary Complex Signal (Δλ, nm) (Potassium glutamate 200 mM): 1.40 nm | Fold Enhancement (Ternary/Binary) (Potassium glutamate 225 mM): 1.11 | Ternary Complex Signal (Δλ, nm) (Potassium glutamate 225 mM): 1.53 nm | Binary Complex Signal (Δλ, nm) (Potassium glutamate 225 mM): 1.38 nm | Fold Enhancement (Ternary/Binary) (Potassium glutamate 250 mM): 1.17 | Ternary Complex Signal (Δλ, nm) (Potassium glutamate 250 mM): 1.48 nm | Binary Complex Signal (Δλ, nm) (Potassium glutamate 250 mM): 1.27 nm | Fold Enhancement (Ternary/Binary) (Potassium glutamate 275 mM): 1.22 | Ternary Complex Signal (Δλ, nm) (Potassium glutamate 275 mM): 1.52 nm | Binary Complex Signal (Δλ, nm) (Potassium glutamate 275 mM): 1.24 nm | Fold Enhancement (Ternary/Binary) (Potassium glutamate 300 mM): 1.23 | Ternary Complex Signal (Δλ, nm) (Potassium glutamate 300 mM): 1.50 nm | Binary Complex Signal (Δλ, nm) (Potassium glutamate 300 mM): 1.23 nm | Fold Enhancement (Ternary/Binary) (Potassium glutamate 325 mM): 1.27 | Ternary Complex Signal (Δλ, nm) (Potassium glutamate 325 mM): 1.46 nm | Binary Complex Signal (Δλ, nm) (Potassium glutamate 325 mM): 1.15 nm | Fold Enhancement (Ternary/Binary) (Potassium glutamate 350 mM): 1.30 | Ternary Complex Signal (Δλ, nm) (Potassium glutamate 350 mM): 1.39 nm | Binary Complex Signal (Δλ, nm) (Potassium glutamate 350 mM): 1.07 nm | Fold Enhancement (Ternary/Binary) (Potassium glutamate 375 mM): 1.32 | Ternary Complex Signal (Δλ, nm) (Potassium glutamate 375 mM): 1.36 nm | Binary Complex Signal (Δλ, nm) (Potassium glutamate 375 mM): 1.03 nm | Fold Enhancement (Ternary/Binary) (Potassium glutamate 400 mM): 1.36 | Ternary Complex Signal (Δλ, nm) (Potassium glutamate 400 mM): 1.36 nm | Binary Complex Signal (Δλ, nm) (Potassium glutamate 400 mM): 0.99 nm | Fold Enhancement (Ternary/Binary) (Potassium glutamate 425 mM): 1.46 | Ternary Complex Signal (Δλ, nm) (Potassium glutamate 425 mM): 1.33 nm | Binary Complex Signal (Δλ, nm) (Potassium glutamate 425 mM): 0.91 nm | Fold Enhancement (Ternary/Binary) (Potassium glutamate 450 mM): 1.52 | Ternary Complex Signal (Δλ, nm) (Potassium glutamate 450 mM): 1.31 nm | Binary Complex Signal (Δλ, nm) (Potassium glutamate 450 mM): 0.86 nm | Fold Enhancement (Ternary/Binary) (Potassium glutamate 475 mM): 1.56 | Ternary Complex Signal (Δλ, nm) (Potassium glutamate 475 mM): 1.28 nm | Binary Complex Signal (Δλ, nm) (Potassium glutamate 475 mM): 0.82 nm | Fold Enhancement (Ternary/Binary) (Potassium glutamate 500 mM): 1.60 | Ternary Complex Signal (Δλ, nm) (Potassium glutamate 500 mM): 1.28 nm | Binary Complex Signal (Δλ, nm) (Potassium glutamate 500 mM): 0.80 nm
SMILES: N[C@@H](CCC(=O)[O-])C(=O)[O-].[K+].[K+] [Potassium Glutamate, potassium glutamate]

SMILES: [Cl-].[Na+] [NaCl]
Fold Enhancement (Ternary/Binary) (NaCl 50 mM): 1.07 | Ternary Complex Signal (Δλ, nm) (NaCl 50 mM): 3.33 nm | Binary Complex Signal (Δλ, nm) (NaCl 50 mM): 3.11 nm | Fold Enhancement (Ternary/Binary) (NaCl 75 mM): 1.10 | Ternary Complex Signal (Δλ, nm) (NaCl 75 mM): 2.77 nm | Binary Complex Signal (Δλ, nm) (NaCl 75 mM): 2.51 nm | Fold Enhancement (Ternary/Binary) (NaCl 100 mM): 1.07 | Ternary Complex Signal (Δλ, nm) (NaCl 100 mM): 2.34 nm | Binary Complex Signal (Δλ, nm) (NaCl 100 mM): 2.17 nm | Fold Enhancement (Ternary/Binary) (NaCl 125 mM): 1.04 | Ternary Complex Signal (Δλ, nm) (NaCl 125 mM): 1.99 nm | Binary Complex Signal (Δλ, nm) (NaCl 125 mM): 1.91 nm | Fold Enhancement (Ternary/Binary) (NaCl 150 mM): 1.04 | Ternary Complex Signal (Δλ, nm) (NaCl 150 mM): 1.73 nm | Binary Complex Signal (Δλ, nm) (NaCl 150 mM): 1.67 nm | Fold Enhancement (Ternary/Binary) (NaCl 175 mM): 1.11 | Ternary Complex Signal (Δλ, nm) (NaCl 175 mM): 1.51 nm | Binary Complex Signal (Δλ, nm) (NaCl 175 mM): 1.36 nm | Fold Enhancement (Ternary/Binary) (NaCl 200 mM): 1.19 | Ternary Complex Signal (Δλ, nm) (NaCl 200 mM): 1.36 nm | Binary Complex Signal (Δλ, nm) (NaCl 200 mM): 1.15 nm | Fold Enhancement (Ternary/Binary) (NaCl 225 mM): 1.27 | Ternary Complex Signal (Δλ, nm) (NaCl 225 mM): 1.28 nm | Binary Complex Signal (Δλ, nm) (NaCl 225 mM): 1.01 nm | Fold Enhancement (Ternary/Binary) (NaCl 250 mM): 1.47 | Ternary Complex Signal (Δλ, nm) (NaCl 250 mM): 1.18 nm | Binary Complex Signal (Δλ, nm) (NaCl 250 mM): 0.80 nm | Fold Enhancement (Ternary/Binary) (NaCl 275 mM): 1.65 | Ternary Complex Signal (Δλ, nm) (NaCl 275 mM): 1.11 nm | Binary Complex Signal (Δλ, nm) (NaCl 275 mM): 0.67 nm | Fold Enhancement (Ternary/Binary) (NaCl 300 mM): 1.86 | Ternary Complex Signal (Δλ, nm) (NaCl 300 mM): 0.99 nm | Binary Complex Signal (Δλ, nm) (NaCl 300 mM): 0.53 nm | Fold Enhancement (Ternary/Binary) (NaCl 325 mM): 2.76 | Ternary Complex Signal (Δλ, nm) (NaCl 325 mM): 0.93 nm | Binary Complex Signal (Δλ, nm) (NaCl 325 mM): 0.34 nm | Fold Enhancement (Ternary/Binary) (NaCl 350 mM): 2.94 | Ternary Complex Signal (Δλ, nm) (NaCl 350 mM): 0.74 nm | Binary Complex Signal (Δλ, nm) (NaCl 350 mM): 0.25 nm | Fold Enhancement (Ternary/Binary) (NaCl 375 mM): 3.62 | Ternary Complex Signal (Δλ, nm) (NaCl 375 mM): 0.61 nm | Binary Complex Signal (Δλ, nm) (NaCl 375 mM): 0.17 nm | Ternary Complex Signal (Δλ, nm) (NaCl 400 mM): 0.48 nm | Binary Complex Signal (Δλ, nm) (NaCl 400 mM): 0.08 nm | Fold Enhancement (Ternary/Binary) (NaCl 425 mM): 5.16 | Ternary Complex Signal (Δλ, nm) (NaCl 425 mM): 0.38 nm | Binary Complex Signal (Δλ, nm) (NaCl 425 mM): 0.07 nm | Fold Enhancement (Ternary/Binary) (NaCl 450 mM): 6.65 | Ternary Complex Signal (Δλ, nm) (NaCl 450 mM): 0.26 nm | Binary Complex Signal (Δλ, nm) (NaCl 450 mM): 0.04 nm | Fold Enhancement (Ternary/Binary) (NaCl 475 mM): 10.28 | Ternary Complex Signal (Δλ, nm) (NaCl 475 mM): 0.19 nm | Binary Complex Signal (Δλ, nm) (NaCl 475 mM): 0.02 nm | Ternary Complex Signal (Δλ, nm) (NaCl 500 mM): 0.21 nm | Binary Complex Signal (Δλ, nm) (NaCl 500 mM): 0.00 nm

From patent publication US11168364B2, “Method and system for sequencing nucleic acids” (priority 2016, dated 2021)
